Data taken from ChEMBL document CHEMBL1201862, “PubChem BioAssay data set” (2004).
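Exposure lasted 48 hours, with cells grown in 96-well plates and compounds tested at five concentrations. GI50 marks 50% less growth.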 Calls of active or inactive are those of the source. Cut-off read from the data, not from the text of the source: active = GI50 up to about 1.1 µM and inactive = higher.

Experiments:
Test in all cases: NCI tumour cell line growth inhibition, 48 h
SF-295 = tested on: SF-295
Malme-3M = tested on: Malme-3M
RPMI-8226 = tested on: RPMI-8226
OVCAR-3 = tested on: OVCAR-3
OVCAR-5 = tested on: OVCAR-5
SK-OV-3 = tested on: SK-OV-3
OVCAR-4 = tested on: OVCAR-4
SNB-75 = tested on: SNB-75
ACHN = tested on: ACHN
U-251 = tested on: U-251
HL-60 = tested on: HL-60
COLO 205 = tested on: COLO 205
UACC-257 = tested on: UACC-257
SR = tested on: SR
HCT-15 = tested on: HCT-15
786-0 = tested on: 786-0
NCI-H23 = tested on: NCI-H23
OVCAR-8 = tested on: OVCAR-8
DU-145 = tested on: DU-145
MCF7 = tested on: MCF7

Row | Compound | GI50 (SF-295) | GI50 (Malme-3M) | GI50 (RPMI-8226) | GI50 (OVCAR-3) | GI50 (OVCAR-5) | GI50 (SK-OV-3) | GI50 (OVCAR-4) | GI50 (SNB-75) | GI50 (ACHN) | GI50 (U-251) | GI50 (HL-60) | GI50 (COLO 205) | GI50 (UACC-257) | GI50 (SR) | GI50 (HCT-15) [µM] | GI50 (786-0) | GI50 (NCI-H23) | GI50 (OVCAR-8) | GI50 (DU-145) | GI50 (MCF7)
1 | CC[C@@H](C(=O)[C@@H](C)[C@@H](O)[C@H](C)CCc1ccc(C)c(O)c1C(=O)O)[C@H]1O[C@](CC)([C@H]2CC[C@](O)(CC)[C@H](C)O2)C[C@@H]1C [LASALOCID A SODIUM] | 1.56 µM (inactive) | 1.05 µM (active) | 1.2 µM (inactive) | 0.637 µM (active) | 6.47 µM (inactive) | 2.92 µM (inactive) | 3.23 µM (inactive) | 0.92 µM (active) | 2.64 µM (inactive) | 1.34 µM (inactive) | 0.348 µM (active) | 1.1 µM (active) | 2.99 µM (inactive) | 1.12 µM (inactive) | 3.19 | 2.9 µM (inactive) | 1.39 µM (inactive) | 2.3 µM (inactive) |  | 
2 | COc1ccc(OC(C)=O)c2c1CCC=CC2=O | 20.9 µM (inactive) | 20.1 µM (inactive) | 1.01 µM (active) | 15.8 µM (inactive) | 16.7 µM (inactive) | 17.5 µM (inactive) | 20 µM (inactive) | 15.8 µM (inactive) | 17.9 µM (inactive) | 18.3 µM (inactive) | 2.47 µM (inactive) | 9.2 µM (inactive) | 17.7 µM (inactive) | 15.1 µM (inactive) | 14.5 | 17.9 µM (inactive) | 18.5 µM (inactive) | 16.8 µM (inactive) |  | 
3 | COCCCNC(=O)C1C(=O)C(=O)N(CCCOC)C1=O (centres undefined) | > 100 µM (inactive) | > 100 µM (inactive) | > 100 µM (inactive) | > 100 µM (inactive) | > 100 µM (inactive) | > 100 µM (inactive) | > 100 µM (inactive) | > 100 µM (inactive) | > 100 µM (inactive) | > 100 µM (inactive) | > 100 µM (inactive) | > 100 µM (inactive) | > 100 µM (inactive) | > 100 µM (inactive) | > 100 | > 100 µM (inactive) | > 100 µM (inactive) | > 100 µM (inactive) |  | 
4 | CC(C)=CC1C(COC(=O)c2cc3c(cc2Cl)OCO3)C1(C)C (centres undefined) | 34.4 µM (inactive) | 14.2 µM (inactive) |  | 25.2 µM (inactive) | 60.4 µM (inactive) |  | 28.4 µM (inactive) |  | 33.1 µM (inactive) | 26.8 µM (inactive) | 20.9 µM (inactive) |  | 40.3 µM (inactive) | 21.3 µM (inactive) | 29 | 37.8 µM (inactive) | 33.3 µM (inactive) | 34.8 µM (inactive) | 28.4 µM (inactive) | 
5 | CCOP(=O)(O)C1C(CO)OC(n2ccc(=O)[nH]c2=O)C1O (centres undefined) | > 100 µM (inactive) | > 100 µM (inactive) | > 100 µM (inactive) | > 100 µM (inactive) |  |  | > 100 µM (inactive) | > 100 µM (inactive) | > 100 µM (inactive) |  | > 100 µM (inactive) |  | > 100 µM (inactive) | > 100 µM (inactive) | > 100 | > 100 µM (inactive) |  | > 100 µM (inactive) |  | 
6 | CCN(CC)CCNC(=O)C1COc2ccc(-c3cc(=O)c4ccccc4o3)cc2O1 (centres undefined) | 18.5 µM (inactive) | 16 µM (inactive) | 22.5 µM (inactive) | 21.2 µM (inactive) | 22.3 µM (inactive) | 23 µM (inactive) | 18.5 µM (inactive) | 17.2 µM (inactive) |  | > 45.2 µM (inactive) | 13.2 µM (inactive) | 17.9 µM (inactive) | 17.6 µM (inactive) |  | 15.5 |  | 22 µM (inactive) | 16.7 µM (inactive) |  | 19.4 µM (inactive)
7 | S=C(NN=C1NCCCCN1)Nc1ccc(Cl)cc1 | 13.7 µM (inactive) | 17.1 µM (inactive) | 7.83 µM (inactive) | 35.8 µM (inactive) | 14.8 µM (inactive) | 15.1 µM (inactive) | 38.9 µM (inactive) | 23.8 µM (inactive) | 7.29 µM (inactive) | 7.71 µM (inactive) | 8.18 µM (inactive) | 13.1 µM (inactive) | 14.8 µM (inactive) | 11.8 µM (inactive) | 6.4 | 7.35 µM (inactive) | 18.5 µM (inactive) | 10.3 µM (inactive) |  | 34 µM (inactive)
8 | O=S(=O)(O)c1cc(/N=[N+](\[O-])c2ccc(/N=N/c3ccccc3)cc2S(=O)(=O)O)ccc1/C=C/c1ccc(/N=[N+](\[O-])c2ccc(/N=N/c3ccccc3)cc2S(=O)(=O)O)cc1S(=O)(=O)O | > 58.3 µM (inactive) | > 100 µM (inactive) | > 100 µM (inactive) | > 100 µM (inactive) | > 100 µM (inactive) | > 100 µM (inactive) | > 87.3 µM (inactive) | 72.8 µM (inactive) |  | > 100 µM (inactive) | > 100 µM (inactive) | > 100 µM (inactive) | > 100 µM (inactive) |  | > 100 |  | > 100 µM (inactive) | > 100 µM (inactive) |  | > 100 µM (inactive)
9 | COc1cc(-c2cc(=O)c3c(O)c(OC)c(OC)c(OC)c3o2)ccc1O | 23.4 µM (inactive) | 28.7 µM (inactive) | 19 µM (inactive) | 32.1 µM (inactive) | > 100 µM (inactive) | 11.2 µM (inactive) |  |  | 21.4 µM (inactive) | 8.97 µM (inactive) | 31.3 µM (inactive) | > 10 µM (inactive) | 20.7 µM (inactive) | 23 µM (inactive) | 7.74 | 29.8 µM (inactive) | 27.7 µM (inactive) | 16.3 µM (inactive) |  | 
10 | CCc1cccc(C(C)C)c1NC(=O)CC1Sc2ccccc2NC1=O (centres undefined) | 44.3 µM (inactive) | 83.6 µM (inactive) | 48.5 µM (inactive) | 56 µM (inactive) | > 100 µM (inactive) | > 100 µM (inactive) | 76.2 µM (inactive) | 60.7 µM (inactive) | 51.6 µM (inactive) | 71 µM (inactive) | 24 µM (inactive) | 50.4 µM (inactive) | 43.8 µM (inactive) | 30.1 µM (inactive) | 47.9 | 80 µM (inactive) | 52.8 µM (inactive) | 78 µM (inactive) |  | 
11 | O=C1C=CC2(C=C1)C[C@H](NC(=O)C(F)(F)F)C(=O)O2 | > 100 µM (inactive) | 19.8 µM (inactive) | 31.3 µM (inactive) | > 100 µM (inactive) | > 100 µM (inactive) | > 100 µM (inactive) | > 100 µM (inactive) | 69 µM (inactive) | > 100 µM (inactive) | 54.3 µM (inactive) | 14.2 µM (inactive) | 29.6 µM (inactive) | 34.8 µM (inactive) | 37 µM (inactive) | 31.6 | > 100 µM (inactive) | 26.7 µM (inactive) | 37.2 µM (inactive) |  | 
12 | N=C(N)N/N=C(/CC1OC(=O)c2ccccc21)c1ccc2ccccc2c1 (centres undefined) | 23.8 µM (inactive) | 14.5 µM (inactive) | 17.1 µM (inactive) | 17.5 µM (inactive) | 30.1 µM (inactive) | 21.9 µM (inactive) | 17.2 µM (inactive) | 20 µM (inactive) | 18.9 µM (inactive) | 14.6 µM (inactive) | 17.8 µM (inactive) | 19.6 µM (inactive) | 14.6 µM (inactive) | 14.2 µM (inactive) | 15.3 | 17.1 µM (inactive) | 26.2 µM (inactive) | 15.8 µM (inactive) |  | 
13 | CCc1cccc(C(C)C)c1NC(=O)C(=O)C(CC(=O)Nc1ccc(Cl)c(Cl)c1)C(=O)OC (centres undefined) | > 100 µM (inactive) | > 100 µM (inactive) | 44 µM (inactive) | > 100 µM (inactive) | > 100 µM (inactive) | > 100 µM (inactive) | > 100 µM (inactive) | > 100 µM (inactive) | 78 µM (inactive) | > 100 µM (inactive) | > 100 µM (inactive) | 77.3 µM (inactive) | > 100 µM (inactive) | > 100 µM (inactive) | 14.8 | > 100 µM (inactive) | > 100 µM (inactive) | > 100 µM (inactive) |  | 
14 | COc1ccc2c(c1)[n+]([O-])c(-c1nc3ccccc3s1)c(N)[n+]2[O-] | > 100 µM (inactive) | > 100 µM (inactive) | 35.5 µM (inactive) | 78.7 µM (inactive) | > 100 µM (inactive) | > 100 µM (inactive) | > 100 µM (inactive) | 39.1 µM (inactive) | 93.1 µM (inactive) | 78 µM (inactive) | 39.4 µM (inactive) | 36.5 µM (inactive) | 63.5 µM (inactive) | 59.6 µM (inactive) | 89.5 | > 100 µM (inactive) | 64.9 µM (inactive) | > 100 µM (inactive) |  | 
15 | COc1ccc(/C=c2\sc3nnc(CCC(=O)Nc4cccc(C(F)(F)F)c4)n3c2=O)cc1 | > 100 µM (inactive) | > 100 µM (inactive) | 38.4 µM (inactive) | 39.8 µM (inactive) | > 100 µM (inactive) | > 100 µM (inactive) | > 100 µM (inactive) | > 75.7 µM (inactive) | > 100 µM (inactive) | > 94.2 µM (inactive) | > 47.9 µM (inactive) | > 100 µM (inactive) | > 100 µM (inactive) | 42.6 µM (inactive) | > 100 | > 71.8 µM (inactive) | > 100 µM (inactive) | 83.4 µM (inactive) |  | 
16 | CC(=O)OC[C@H]1O[C@@H](O[C@H]2[C@H](OC(C)=O)C=CO[C@@H]2COC(C)=O)C(OC(C)=O)[C@H]2OC(C)(C)O[C@H]21 (some centres undefined) | > 100 µM (inactive) | > 100 µM (inactive) |  | > 100 µM (inactive) | > 100 µM (inactive) | > 100 µM (inactive) | > 100 µM (inactive) | 30.5 µM (inactive) | > 100 µM (inactive) | > 100 µM (inactive) |  | > 100 µM (inactive) | > 100 µM (inactive) | 43.3 µM (inactive) | > 100 | > 100 µM (inactive) | > 100 µM (inactive) | > 100 µM (inactive) |  | > 100 µM (inactive)
